Activity data for 31 molecules are collected here from ChEMBL document CHEMBL5104096, “Undecaprenol kinase: Function, mechanism and substrate specificity of a potential antibiotic target” (Eur J Med Chem, 2021).

In the first test the test system is Streptococcus mutans. Description: Substrate activity at 6xHis-tagged Streptococcus mutans UdpK expressed in Escherichia coli BL-21(DE3) assessed as measuring ADP level in presence of ATP/NADH by PK/LDH coupled assay.
Details: not given
Take `CC(C)=CCC/C(C)=C\CC/C(C)=C\CO`: the Activity was determined as 21.2 µmol/mg/min. On the same count and under the same terms, under `CC(C)=CCC/C(C)=C/CC/C(C)=C/CC/C(C)=C\CC/C(C)=C\CC/C(C)=C\CC/C(C)=C\CC/C(C)=C\CC/C(C)=C\CC/C(C)=C\CC/C(C)=C\CC/C(C)=C\CCC(C)CCO` (stereo unspecified) stands 4.5 µmol/mg/min; under `C/C(=C/CO)CC/C=C(/C)CC/C=C(\C)CC/C=C(\C)CC/C=C(\C)CNS(=O)(=O)c1ccc(N=Nc2ccc(N(C)C)cc2)cc1`, 4 µmol/mg/min; under `CCCCCCCCCCCO`, 2.1 µmol/mg/min. On the same count and under the same terms, the figure for `CC(C)=CCC/C(C)=C/CC/C(C)=C\CO` is 5.4 µmol/mg/min; for `CC(C)=CCC/C(C)=C/CC/C(C)=C/CC/C(C)=C/CC/C(C)=C\CC/C(C)=C\CC/C(C)=C\CC/C(C)=C\CC/C(C)=C\CC/C(C)=C\CO` it is 3.8 µmol/mg/min; for `CC(C)=CCC/C(C)=C/CO` it is 6.2 µmol/mg/min.

Regarding `CC(C)=CCC/C(C)=C/CC/C(C)=C/CO`, the Activity was found to be 11.5 µmol/mg/min. The same measure, in the same setting: the figure for `CC(C)=CCC/C(C)=C/CC/C(C)=C/CC/C(C)=C/CO` is 9.3 µmol/mg/min. Same read-out and setting: the figure for `CC(C)=CCC/C(C)=C/CC/C(C)=C/CC/C(C)=C\CC/C(C)=C\CC/C(C)=C\CC/C(C)=C\CC/C(C)=C\CO` is 3.8 µmol/mg/min; for `CCCCCCCCCCCCCCCCO` it is 1.9 µmol/mg/min. On the same count and under the same terms, under `CC(C)=CCC/C(C)=C/CC/C(C)=C/CC/C(C)=C\CC/C(C)=C\CC/C(C)=C\CC/C(C)=C\CO` stands 8.8 µmol/mg/min. On to `CCCCCCCCCCCCCCCCCCCCO`, for which the Activity was 1.3 µmol/mg/min.

As for `C/C(=C/CO)CC/C=C(/C)CC/C=C(/C)CC/C=C(\C)CC/C=C(\C)CNS(=O)(=O)c1ccc(N=Nc2ccc(N(C)C)cc2)cc1`, the Activity was determined as 4.1 µmol/mg/min. The same measure, in the same setting: under `C/C(=C\CO)CCCC(C)CCCC(C)CCCC(C)C` (stereo unspecified) stands 5.6 µmol/mg/min; under `C/C(=C\CO)CC/C=C(\C)CC/C=C(\C)CC/C=C(\C)CC/C=C(\C)CNS(=O)(=O)c1ccc(N=Nc2ccc(N(C)C)cc2)cc1`, 3.3 µmol/mg/min; under `C/C(=C/CO)CC/C=C(\C)CC/C=C(\C)CC/C=C(\C)CC/C=C(\C)CNS(=O)(=O)c1ccc(N=Nc2ccc(N(C)C)cc2)cc1`, 5.9 µmol/mg/min. The same measure, in the same setting: the figure for `CC(C)=CCC/C(C)=C/CC/C(C)=C/CC/C(C)=C/CC/C(C)=C/CC/C(C)=C/CC/C(C)=C/CC/C(C)=C/CC/C(C)=C/CO` is 4.9 µmol/mg/min.

The test system of a further test is Streptococcus mutans. In words: Substrate activity at wild-type Streptococcus mutans UdpK expressed in Escherichia coli C43(DE3) in presence of ATP/NADH by PK/LDH coupled assay.
Details: not given
Consider `CC(=O)SCCC/C(C)=C/CC/C(C)=C/CC/C(C)=C/CC/C(C)=C\CC/C(C)=C\CC/C(C)=C\CC/C(C)=C\CC/C(C)=C\CC/C(C)=C\CC/C(C)=C\CO`, for which the Activity was determined as 11.8 µmol/mg/min. Same read-out and setting: the figure for `C/C(=C/CO)CC/C=C(/C)CC/C=C(/C)CC/C=C(/C)CC/C=C(/C)CC/C=C(/C)CC/C=C(/C)CC/C=C(\C)CC/C=C(\C)CC/C=C(\C)CCCNc1ccc([N+](=O)[O-])cc1` is 9 µmol/mg/min; for `C/C(=C/CO)CC/C=C(/C)CC/C=C(/C)CC/C=C(/C)CC/C=C(/C)CC/C=C(/C)CC/C=C(/C)CC/C=C(\C)CC/C=C(\C)CC/C=C(\C)CCCN=[N+]=[N-]` it is 10.8 µmol/mg/min.

On to `C/C(=C/CO)CC/C=C(/C)CC/C=C(/C)CC/C=C(/C)CC/C=C(/C)CC/C=C(/C)CC/C=C(/C)CC/C=C(\C)CC/C=C(\C)CC/C=C(\C)CCCNc1cc2ccc3cccc4ccc(c1)c2c34`, for which the Activity was found to be 6.2 µmol/mg/min.

`C/C(=C/CO)CC/C=C(/C)CC/C=C(/C)CC/C=C(/C)CC/C=C(/C)CC/C=C(/C)CC/C=C(/C)CC/C=C(\C)CC/C=C(\C)CC/C=C(\C)CCCNCc1ccc(C2(C(F)(F)F)N=N2)cc1`: the Activity amounted to 5.1 µmol/mg/min.

For the molecule `C#CCNCCC/C(C)=C/CC/C(C)=C/CC/C(C)=C/CC/C(C)=C\CC/C(C)=C\CC/C(C)=C\CC/C(C)=C\CC/C(C)=C\CC/C(C)=C\CC/C(C)=C\CO`, the Activity was found to be 7.1 µmol/mg/min. With `C/C(=C/CO)CC/C=C(/C)CC/C=C(/C)CC/C=C(/C)CC/C=C(/C)CC/C=C(/C)CC/C=C(/C)CC/C=C(\C)CC/C=C(\C)CC/C=C(\C)CCC1OC1(C)C` (stereo unspecified), the Activity turned out to be 8.1 µmol/mg/min. The same measure, in the same setting: under `C/C(=C/CC/C(C)=C\CC/C(C)=C\CC/C(C)=C\COC1CCCCO1)CC/C=C(/C)CC/C=C(/C)CC/C=C(/C)CC/C=C(\C)CC/C=C(\C)CC/C=C(\C)CCCO` (stereo unspecified) stands 3.4 µmol/mg/min; under `C/C(=C/CO)CC/C=C(/C)CC/C=C(/C)CC/C=C(/C)CC/C=C(/C)CC/C=C(/C)CC/C=C(/C)CC/C=C(\C)CC/C=C(\C)CC/C=C(\C)CCCNc1ccc(N=[N+]=[N-])cc1`, 9.4 µmol/mg/min.

On to `C/C(=C/CO)CC/C=C(/C)CC/C=C(/C)CC/C=C(/C)CC/C=C(/C)CC/C=C(/C)CC/C=C(/C)CC/C=C(\C)CC/C=C(\C)CC/C=C(\C)CCCNc1ccccc1C(N)=O`, for which the Activity worked out at 6.9 µmol/mg/min. On the same count and under the same terms, the figure for `C/C(=C/CO)CC/C=C(/C)CC/C=C(/C)CC/C=C(/C)CC/C=C(/C)CC/C=C(/C)CC/C=C(/C)CC/C=C(\C)CC/C=C(\C)CC/C=C(\C)CCCNC1CC(C)(C)N([O])C(C)(C)C1` is 5.1 µmol/mg/min. Same read-out and setting: the figure for `C#Cc1cccc(NCCC/C(C)=C/CC/C(C)=C/CC/C(C)=C/CC/C(C)=C\CC/C(C)=C\CC/C(C)=C\CC/C(C)=C\CC/C(C)=C\CC/C(C)=C\CC/C(C)=C\CO)c1` is 9 µmol/mg/min.

Still in this test, the particulars now being: tested as the 2H-labelled form.
In the case of `CC(C)=CCC/C(C)=C/CC/C(C)=C/CC/C(C)=C/CC/C(C)=C\CC/C(C)=C\CC/C(C)=C\CC/C(C)=C\CC/C(C)=C\CC/C(C)=C\CC/C(C)=C\CO`, the Activity was 9.4 µmol/mg/min.
